Reference: ChEMBL document CHEMBL1133911, “Synthesis of OSW-1 analogues and a dimer and their antitumor activities” (Bioorg Med Chem Lett, 2001)

Experiments:
Type in all cases: functional
[1] = tested on: P388; assay: Percent growth inhibition of P388 mouse leukemia at 10e-6 M compound concentration in standard MTT assay
[2] = tested on: A549; assay: Percent growth inhibition of A-549 human lung adenocarcinoma at 10e-6 M compound concentration in standard MTT assay
[3] = tested on: A549; assay: Percent growth inhibition of A-549 human lung adenocarcinoma at 10e-7 M compound concentration in standard MTT assay
[4] = tested on: P388; assay: Percent growth inhibition of P388 mouse leukemia at 10e-8 M compound concentration in standard MTT assay
[5] = tested on: P388; assay: Percent growth inhibition of P388 mouse leukemia at 10e-7 M compound concentration in standard MTT assay
[6] = tested on: A549; assay: Percent growth inhibition of A-549 human lung adenocarcinoma at 10e-8 M compound concentration in standard MTT assay

Row | SMILES | inhibition at 1 µM [1] [%] | inhibition at 1 µM [2] [%] | inhibition at 0.1 µM [3] [%] | inhibition at 0.01 µM [4] [%] | inhibition at 0.1 µM [5] [%] | inhibition at 0.01 µM [6] [%]
1 | CC(=O)OC[C@@H](C)[C@@]1(O)[C@H](OC2OCC(O)C(OC3OCC(O)C(O)C3OC(C)c3ccccc3)C2OC(C)=O)CC2C3CC=C4C[C@@H](OC(C)=O)CC[C@]4(C)C3CC[C@@]21C (stereo not given in full) | 20.4 | 6.2 | 0.8 | 17.9 | 15.5 | 
2 | CC(=O)OC1C(O[C@@H]2CC3C4CC=C5C[C@@H](O)CC[C@]5(C)C4CC[C@]3(C)[C@@]2(O)[C@H](C)C(=O)CCC(C)C)OCC(O)C1OC1OCC(O)C(O)C1OC(C)c1ccccc1 (stereo not given in full) | 66.7 | 53.8 | 29.5 | 15.5 | 35.4 | 
3 | CC(=O)OC1C(O[C@H]2CC[C@@]3(C)C(=CCC4C3CC[C@@]3(C)C4C[C@@H](OC4OCC(O)C(OC5OCC(O)C(O)C5OC(C)c5ccccc5)C4OC(C)=O)[C@]3(O)[C@H](C)C(=O)CCC(C)C)C2)OCC(O)C1OC1OCC(O)C(O)C1OC(C)c1ccccc1 (stereo not given in full) | 90.7 | 80.9 | 6.7 |  | 52 | 0.7
